From patent publication US20250222143A1, “TARGETED RADIOTHERANOSTICS BASED ON POLYAZAMACROCYCLIC, MIXED-DONOR SCAFFOLDS LINKED TO A TARGETING VECTOR” (The Research Foundation for the State University of New York, priority 2021, published 2025)
“And” between values parts separate entries of the source, which are not always exact repeats. Equal entries are not always repeated. Where two headings read alike, the source gives them in different places.

Legend:
human serum albumin [1] = target: T1, human serum albumin (Homo sapiens, UniProt P02768); assay: Binding to human serum albumin (ultrafiltration, Lu in filtrate by ICP-OES)
T1 sequence (P02768 25-609): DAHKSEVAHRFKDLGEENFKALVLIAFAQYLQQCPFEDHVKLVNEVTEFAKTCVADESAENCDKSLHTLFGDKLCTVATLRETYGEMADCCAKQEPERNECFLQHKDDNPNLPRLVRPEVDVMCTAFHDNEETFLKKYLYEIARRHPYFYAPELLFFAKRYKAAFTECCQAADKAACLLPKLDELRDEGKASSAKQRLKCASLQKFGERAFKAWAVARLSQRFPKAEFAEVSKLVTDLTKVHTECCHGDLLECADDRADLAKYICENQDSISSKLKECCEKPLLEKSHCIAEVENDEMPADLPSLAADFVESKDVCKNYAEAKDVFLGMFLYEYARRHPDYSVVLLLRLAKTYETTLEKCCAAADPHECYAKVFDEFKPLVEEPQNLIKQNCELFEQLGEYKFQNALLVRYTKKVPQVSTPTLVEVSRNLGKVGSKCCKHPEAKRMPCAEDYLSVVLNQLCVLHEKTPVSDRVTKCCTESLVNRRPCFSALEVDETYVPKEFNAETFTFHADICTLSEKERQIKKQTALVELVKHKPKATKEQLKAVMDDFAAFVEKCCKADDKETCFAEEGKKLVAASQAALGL
Procedure: (§1) To measure HSA binding of the complexes, a 0.1 mM solution (determined by ICP-OES) of the corresponding ^natLu complex in 4.5% w/v HSA was prepared and pipetted into an Amicon Ultra-0.5 Centrifugal Filter Unit (50 KDa cutoff, Millipore, UFC500396). The mixture was incubated at 37° C. for 15 min and subsequently centrifuged at 12000 rpm for 10 min. Binding is determined by measurement of Lu content in the filtrate by ICP-OES and compared to non-specific binding to the filter in absence of HSA.
(§2) To this end, each ligand was incubated at 37° C. for 15 minutes in PBS with or without 4.5% human serum albumin to simulate in vivo protein concentration. Each mixture was filtered through a 50 KDa MW cutoff filter and the ^natLu content of the filtrate was measured by ICP-OES. ^natLu-mpaten was used as a chelator-only control with no targeting functionality and thus no expected interaction with human serum albumin.

human serum albumin [2] = target: T1, human serum albumin; details: 15 min, 0.1 mM
Procedure: as §1, §2

PSMA [3] = target: T2, PSMA (Homo sapiens, UniProt Q04609); details: value taken from literature; cited from earlier work
T2 sequence (Q04609 whole entry): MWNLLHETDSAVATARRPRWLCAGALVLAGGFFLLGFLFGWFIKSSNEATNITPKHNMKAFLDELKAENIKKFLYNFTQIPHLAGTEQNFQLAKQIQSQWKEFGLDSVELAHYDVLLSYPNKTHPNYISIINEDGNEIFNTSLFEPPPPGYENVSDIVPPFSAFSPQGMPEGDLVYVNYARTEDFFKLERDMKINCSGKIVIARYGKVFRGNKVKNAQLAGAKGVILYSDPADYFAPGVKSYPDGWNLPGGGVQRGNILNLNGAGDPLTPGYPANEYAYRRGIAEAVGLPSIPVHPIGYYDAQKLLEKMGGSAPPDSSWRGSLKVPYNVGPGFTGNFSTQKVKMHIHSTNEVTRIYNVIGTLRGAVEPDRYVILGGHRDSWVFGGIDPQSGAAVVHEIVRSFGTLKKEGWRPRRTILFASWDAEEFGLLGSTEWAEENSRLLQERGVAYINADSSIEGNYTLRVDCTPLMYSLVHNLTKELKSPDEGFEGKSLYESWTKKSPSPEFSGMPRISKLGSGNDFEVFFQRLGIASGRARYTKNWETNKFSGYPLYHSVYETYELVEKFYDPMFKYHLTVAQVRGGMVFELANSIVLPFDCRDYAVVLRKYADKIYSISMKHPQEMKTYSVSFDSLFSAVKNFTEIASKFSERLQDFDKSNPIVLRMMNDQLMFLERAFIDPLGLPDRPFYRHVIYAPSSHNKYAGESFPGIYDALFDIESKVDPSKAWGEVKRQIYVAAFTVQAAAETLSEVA

[4] = Formulation stability of [Sc-^18F(picaga-DUPA)]^- by radioHPLC; type: physicochemical
Procedure: The stability of [Sc-^18F(picaga-DUPA)]^− in both DPBS and saline was evaluated for up to 4 h. It was determined that [Sc-^18F(picaga-DUPA)]^− was stable in both DPBS and saline for at least 4 h (FIG. 7A, B).
The [^18F]KF stock solution was prepared as previously described (39.4 mCi, 693 μL, pH 2.5). The Sc-^18F precursor was formed via direct addition of 200 μL 0.25 M ammonium acetate (pH 4.1) buffer and 20 nmol ScCl3 stock (0.25 eq.) to the [^18F]KF stock. Following incubation at room temperature for 10 minutes, 79.8 nmol picaga-DUPA (1 eq.) was added to 400 μL of the Sc-^18F precursor stock solution (13.11 mCi), then incubated at 100° C. for 25 minutes. The major [^18F]Sc—F(picaga)-DUPA species was separated the minor isomer and Sc-^18F via analytical radioHPLC (Method C). (FIG. 34) Purified [^18F]Sc—F(picaga)-DUPA complex was concentrated to dryness under reduced pressure and formulated for injection in DPBS (2.11 mCi, 550 μL). Dose formulation stability was analyzed at 0 and 4 hours (FIG. 34A), before and after in vivo experiments, via radioHPLC (Method C). Apparent molar activity: 164 mCi/μmol.

[5] = cited from earlier work
[6] = Spectrophotometric pH-dependent titration (complex formation pKa, speciation); type: physicochemical
Text: As was previously shown, radiolabeling of Lu-177 with L1 is not feasible at room temperature, in part due to the comparatively high formation pKa of the [Lu(L1)] coordination complex (pH 2.4) (Vaughn, B. A. et al. 2021).

PSMA + and PSMA − tumors = details: previous work, 2 h post-injection, n = 4, cited from earlier work
[7] = Whole body activity clearance (dose calibrator); parameters: species or system mice; details: mouse, in vivo
Procedure: Whole body activity was measured by placing each mouse into a dose-calibrator. % Remaining activity was given by =[At/At=0] where At is the decay-corrected whole body activity at time t and At-0 is the total activity measured by dose calibrator p.i. The data were fit to a one-phase decay curve in GraphPad Prism and the biological decay constant K was calculated to be K=0.005638 h^−1 for ^177Lu-(picaga)-HSA and K=0.1415 h^−1 for ^177Lu-PSMA-617.
To approximate clearance of the ^177Lu-constructs, therapy cohort treated with ^177Lu-(picaga)-HSA and ^177Lu-PSMA-617 were monitored for residual whole-body activity remaining in the mouse. The whole-body activity remaining was plotted and the biological half-life in PSMA+tumor-bearing mice was determined using nonlinear regression in Graph Pad Prism (FIG. 16; Table 5). […] This is attributable to both the longer blood half-life because of the HSA-binding functionality and to the enhanced tumor uptake afforded by the longer blood circulation.

PSMA+PC-3 PIP tumors [8] = assay: Single dose radiotherapy study in PC-3 PIP tumor-bearing mice; details: single dose 3.7 MBq
Procedure: Twelve-week-old male mice were inoculated subcutaneously on the right shoulder with PSMA+PC-3 PIP cells (0.7×10^6/mouse in 1:2 DPBS pH 7.4: Matrigel). Tumors grew nine days before treatment with an approximate volume of 100 mm^3 at day 0. Three groups of mice (n=6) (cohort A, B, and C) with statistically similar body weights and tumor volumes were injected at day 0 of the therapy study. Group A received saline only. […] Following administration of radioligand or vehicle, the mice were monitored by measuring the tumor size and body weight over 60 days. Mice were euthanized when the predefined end point criteria were reached, or when the study was terminated at day 60. The relative body weight (RBW) was defined as [BWx/BW0], where BWx is the body weight in grams at a given day x and BW0 is the body weight in grams on day 0. The tumor dimension was determined by measuring the longest tumor axis (L) and its perpendicular axis (W) with a digital caliper. The tumor volume (V) was calculated according to the equation [V=0.5×(LW^2)].

[9] = Dose formulation stability of ^177Lu-radiolabeled ligands by radio-HPLC; type: physicochemical; details: DMSO:NH4OAc:phosphate buffered saline, room temperature
Procedure: The stability for ^177Lu-radiolabeled ligands was evaluated by radio-HPLC for radiolytic degradation and decomplexation at relevant time points concentrations for dose preparation, storage, and administration. (picaga)-HSA was radiolabeled as previously described at a specific activity of 0.08 mCi/nmol (3.0 MBq/nmol) and diluted in PBS. A 0.1 mL aliquot was removed, stored at room temperature, and tested for stability by radio-HPLC. The activity concentration at t=0 was 0.12 mCi in 0.1 mL.
Under the same conditions, ^177Lu-PSMA-617 was determined to be 80% intact.

PSMA+PC3 PIP cells = assay: Cell uptake and internalization; type: cell-based
Procedure: The binding and internalization of ^177Lu-(picaga)-HSA and ^177Lu-PSMA-617 was evaluated in PSMA+PC3 PIP cells. In brief, 5×10^5 PC3 PiP cells are suspended, washed and aliquoted. The internalized fraction is determined using ^177Lu-ligand in PC3 PiP cells, with ligands radiolabeled at a specific activity of 0.08 mCi/nmol (3.0 MBq/nmol) and diluted in PBS. […] Subsequently, cell samples were lysed by addition of NaOH (1 M, 1 mL) to release cellular contents and internalized ^177Lu-(picaga)-HSA. Radioactive counts are quantitated separately using a gamma well counter, with each incubation conducted in triplicate.

PSMA+PC-3 PIP tumors [10] = assay: Pilot therapy study with ^177Lu-picaga-DUPA; details: 3.3 MBq, n = 4, 14 days
Procedure: Twelve-week-old male mice were inoculated subcutaneously on the right shoulder with PSMA+PC-3 PIP cells (0.7×10^5/mouse in 1:1 DPBS pH 7.4: Matrigel). Tumors grew nine days before treatment with an approximate volume of 100 mm^3 at day 0. One group of mice (n=4) (cohort D) with statistically similar body weights and tumor volumes were injected at day 0 of the therapy study. Group D received 3.3 MBq of the radioligand via tail vein injection (^177Lu-picaga-DUPA). Following administration of radioligand, the mice were monitored by measuring the tumor size and body weight over 14 days. Mice were euthanized when the predefined end point criteria were reached, or when the study was terminated at day 14. The relative body weight (RBW) was defined as [BWx/BW0], where BWx is the body weight in grams at a given day x and BW0 is the body weight in grams on day 0. The tumor dimension was determined by measuring the longest tumor axis (L) and its perpendicular axis (W) with a digital caliper. The tumor volume (V) was calculated according to the equation [V=0.5×(LW^2)]. The relative tumor volume (RTV) was defined as [TVx/TV0], where TVz is the tumor volume in mm^3 at a given day x, and TV0 is the tumor volume in mm^3 at day 0.

PSMA [11] = target: T2, PSMA; assay: Displacement assay against ^99mTc(CO)3-MIP-1427 for binding affinity to PSMA; details: displacement of ^99mTc-MIP-1427, DCFPyL as internal reference; read-out: affinity (Ki) to the PSMA target
Procedure: Stock solutions of Lu-(picaga)-HSA in (DMSO: H2O, 1:5) were prepared and concentrations were determined by ICP-OES in accordance with previously published method.
The Ki was determined by nonlinear regression analysis using GraphPad Prism software.
Prior to the assessment of the ^177Lu-labeled compounds, binding affinity to the biological target PSMA was evaluated.

Which “difference in compound in the filtrate with or without HSA” value (human serum albumin [1]; 4.5% HSA in PBS vs PBS, chelator-only control) does the source give for `O=C([O-])CN1CCN(CC(=O)[O-])CCN(Cc2cccc(C(=O)[O-])n2)CC1.[Lu+3]` [Lu-mpaten] here?
The value was “no significant difference”.

With `O=C(O)CC[C@H](NC(=O)N[C@@H](CCCCNC(=O)[C@H](Cc1ccc2ccccc2c1)NC(=O)[C@H]1CC[C@H](CNC(=O)CN2CCN(CC(=O)O)CCN(CC(=O)O)CCN(CC(=O)O)CC2)CC1)C(=O)O)C(=O)O` [PSMA-617] as the compound, how does the “binding to HSA compared to PBS” value (human serum albumin [2]) read?
The value was 55±1.2%.

What about the Ki (PSMA [3]) of the same compound?
The Ki was 6.9 ± 1.3 nM.

For `O=C([O-])CN1CCN(Cc2cccc(C(=O)[O-])n2)CCN(C(CCC(=O)NCCCCCNC(=O)CCC(NC(=O)NC(CCC(=O)O)C(=O)O)C(=O)O)C(=O)[O-])CC1.[18F-].[Sc+3]` (stereo not drawn) [Sc-^18F(picaga)-DUPA], which “stability in DPBS” value ([4]; DPBS, evaluated for up to 4 h) is on record?
The value was “at least 4 h”.

And the “radioHPLC after purification and storage in PBS for 4 hours” value [4]?
Its value is “no detectable decomposition even after 4 hours”.

What about the “radioHPLC after purification and storage in PBS for 4 hours” value ([4]; listed as [^18F]Sc—F(picaga)-DUPA) of the same compound?
The value was “No degradation or defluorination is observed”.

And the stability in saline ([4]; saline, evaluated for up to 4 h)?
The stability in saline was “at least 4 h”.

For `O=C([O-])CN1CCNCCN(CC(=O)[O-])CC1.[Al+3].[OH-]` [[(Al(NO2A)(OH)], reference compound], which “pH at which hydroxide complex can form” value ([5]; literature) is on record?
The value was < 5.

With `O=C([O-])CN1CCN(CC(=O)[O-])CCN(Cc2cccc(C(=O)[O-])n2)CC1.[Lu+3]` [[Lu(L1)]] as the compound, how does the “complex formation pKa (pH of first complex species)” value ([5]; previously shown (Vaughn, B. A. et al. 2021)) read?
The value was 2.4.

For `O=C([O-])CN1CCN(CC(=O)[O-])CCN(Cc2cccc(P(=O)([O-])[O-])n2)CC1.[Lu+3]` [[Lu(L2)]], which “complex formation pKa (pH of first complex species)” value [6] is on record?
The value was 0.9.

With `O=C([O-])CN1CCN(CC(=O)[O-])CCN(Cc2cccc(C(=O)[O-])n2)CC1.[OH-].[Sc+3]` [[Sc(mpatcn)(OH)]^−] as the compound, how does the “pKa of hydroxide complex” value ([5]; deprotonation of Sc-bound inner sphere water, literature) read?
The value was 9.1.

With `O=C([O-])CN1CCN(Cc2cccc(C(=O)[O-])n2)CCN(C(CCC(=O)NCCCCCNC(=O)CCC(NC(=O)NC(CCC(=O)O)C(=O)O)C(=O)O)C(=O)[O-])CC1.[47Sc+3]` (stereo not drawn) [^47Sc(picaga)-DUPA] as the compound, how does the “Blood 2 h” value (PSMA + and PSMA − tumors; Blood) read?
The value was 0.19 ± 0.14 % ID/g.

And the “Bone 2 h” value (PSMA + and PSMA − tumors; Bone)?
The value was 0.12 ± 0.06 % ID/g.

What about the “Heart 2 h” value (PSMA + and PSMA − tumors; Heart) of the same compound?
Its value is 0.11 ± 0.03 % ID/g.

And the “Kidney 2 h” value (PSMA + and PSMA − tumors; Kidney)?
Its value is 7.13 ± 3.73 % ID/g.

What about the “Liver 2 h” value (PSMA + and PSMA − tumors; Liver) of the same compound?
Its value is 1.22 ± 1.88 % ID/g.

What about the “Muscle 2 h” value (PSMA + and PSMA − tumors; Muscle) of the same compound?
Its value is 0.08 ± 0.03 % ID/g.

What about the “PSMA + Tumor 2 h” value (PSMA + and PSMA − tumors; PSMA + Tumor) of the same compound?
The value was 12.74 ± 2.87 % ID/g.

What about the “PSMA − Tumor 2 h” value (PSMA + and PSMA − tumors; PSMA − Tumor) of the same compound?
Its value is 0.77 ± 1.11 % ID/g.

And the “Sm. Int. 2 h” value (PSMA + and PSMA − tumors; Sm. Int.)?
The value was 0.18 ± 0.07 % ID/g.

What about the “Spleen 2 h” value (PSMA + and PSMA − tumors; Spleen) of the same compound?
Its value is 0.24 ± 0.10 % ID/g.

With `O=C([O-])CN1CCN(CC(=O)[O-])CCN(CC(=O)NCC2CCC(C(=O)N[C@@H](Cc3ccc4ccccc4c3)C(=O)NCCCC[C@H](NC(=O)N[C@@H](CCC(=O)O)C(=O)O)C(=O)O)CC2)CCN(CC(=O)[O-])CC1.[177Lu+3]` (stereo partly drawn) [^177Lu-PSMA-617, reference compound] as the compound, how does the “biological decay constant K” value [7] read?
Its value is 0.1415 h^−1.

And the “biological half-life t1/2” value [7]?
The value was 4.9 h.

What about the “% activity remaining in whole body p.i., 0 h” value ([7]; 0 h) of the same compound?
Its value is 100.00 ± 0.00%.

And the “% activity remaining in whole body p.i., 24 h” value ([7]; 24 h)?
Its value is 3.35 ± 0.16%.

And the “relative body weight during therapy study” value (PSMA+PC-3 PIP tumors [8])?
The value was “dropped during the study”.

And the “tumor growth / survival compared to control cohort” value (PSMA+PC-3 PIP tumors [8]; PC-3 PIP tumor-bearing mice)?
Its value is “marginally enhanced survival and delayed tumor growth”.

What about the median survival (PSMA+PC-3 PIP tumors [8]; PC-3 PIP tumor-bearing mice, study to day 60) of the same compound?
Its median survival is 21 days.

What about the “complex stability in dose formulation, 4 h” value ([9]; 4 h) of the same compound?
Its value is >99%.

What about the “complex stability in dose formulation, 24 h” value ([9]; 24 h) of the same compound?
The value was >99%.

What about the “complex stability in dose formulation, 48 h” value ([9]; 48 h) of the same compound?
Its value is >99%.

And the “complex stability in dose formulation, 14 d (% intact)” value ([9]; 14 d)?
The value was 80%.

What about the “% Internalization 2 h” value (PSMA+PC3 PIP cells; 2 h) of the same compound?
The value was 33.53±1.40% and 33.53%.

And the “% Uptake 2 h” value (PSMA+PC3 PIP cells; 2 h)?
Its value is 6.36±0.43% and 6.36%.

And the “% Internalization 4 h” value (PSMA+PC3 PIP cells; 4 h)?
The value was 36.11±2.93% and 36.11%.

What about the “% Uptake 4 h” value (PSMA+PC3 PIP cells; 4 h) of the same compound?
The value was 6.15±0.21% and 6.15%.

And the “% Internalization 24 h” value (PSMA+PC3 PIP cells; 24 h)?
Its value is 50.93±2.14% and 50.93%.

And the “% Uptake 24 h” value (PSMA+PC3 PIP cells; 24 h)?
Its value is 9.60±0.11% and 9.60%.

And the “% Uptake Blocking” value (PSMA+PC3 PIP cells; blocking with unlabeled glu-urea-glu PSMA targeting molecule)?
Its value is 0.45±0.03% and 0.45%.

For `O=C([O-])CN1CCN(Cc2cccc(C(=O)[O-])n2)CCN(C(CCC(=O)NCCCCCNC(=O)CCC(NC(=O)NC(CCC(=O)O)C(=O)O)C(=O)O)C(=O)[O-])CC1.[177Lu+3]` (stereo not drawn) [^177Lu-picaga-DUPA], which “delay in tumor growth (pilot data)” value (PSMA+PC-3 PIP tumors [10]) is on record?
The value was “delay in tumor growth for ^177Lu-PSMA-617 was similar to the delay observed in our pilot data”.

With `O=C([O-])CN1CCN(Cc2cccc(C(=O)[O-])n2)CCN(C(CCC(=O)NC(CCCCNC(=O)CCCc2ccc(I)cc2)C(=O)NCC2CCC(C(=O)NC(Cc3ccc4ccccc4c3)C(=O)NCCCCC(NC(=O)NC(CCC(=O)O)C(=O)O)C(=O)O)CC2)C(=O)[O-])CC1.[Lu+3]` (stereo not drawn) [^natLu-(picaga)-HSA] as the compound, how does the “binding to HSA compared to PBS” value (human serum albumin [1]; 0.1 mM ^natLu complex, 4.5% HSA in PBS, 37° C., 15 min, 50 KDa filter) read?
The value was 80±3.3%.

And the Ki (PSMA [11])?
The Ki was 1.4 ± 0.6 nM.
